Experimental data taken from patent publication US8536183B2, “3-pyridylcarbonyl-piperazinylsulfonyl derivatives” (Convergence Pharmaceuticals Limited, priority 2008, dated 2013).
Counter-ions that a name gives are not always drawn.

What follows are compounds tested against T1, hCaV2.2 (Homo sapiens, UniProt Q00975) (assay: hCaV2.2 assay, IonWorks planar array electrophysiology in stably transfected HEK293 cells). Conditions: current elicited by the 1st depolarising pulse inhibited by 50%; HEK293 cells expressing human CaV2.2 alpha/beta3/alpha2delta1; read-out: mean pIC50 (tonic pIC50) (converted).
T1 construct: expressed in transfected cells; plasmids pCIN5-hCaV2.2, pCIH-hCaV β3, pCIP-α2δ1
Type: cell-based
Protocol: Compounds of the invention may be tested for in vitro biological activity in the hCaV2.2 assay in accordance with the following studies:
Stable cell lines expressing the human CaV2.2 α (als) subunit, along with the human […] and α2δ1 auxiliary subunits were created following sequential transfection and selection of human embryonic kidney (HEK293) cells. HEK293 cells were cultured in Dulbecco's modified Eagles media/F12 media (Invitrogen, Cat #041-95750V) containing 10% foetal bovine serum, with added L-glutamine (2 mM; Invitrogen, Cat #25030-024) and non-essential amino acids (5%; Invitrogen, Cat #11140-035). Initially HEK293 cells were transfected with two plasmid vectors for expression of the hCaV2.2 α subunit (pCIN5-hCaV2.2 which carries a neomycin resistance marker) and the hCaV β3 subunit (pCIH-hCaV β3 which carries a hygromycin resistance marker). Clonal cell lines were isolated following selection in media supplemented with 0.4 mg ml^−1 Geneticin G418 (Invitrogen, Cat #10131-027) and 0.1 mg ml^1 hygromycin (Invitrogen, Cat #10687-010). These clonal cell lines were assessed for Cav2.2α/β3-mediated current expression using the IonWorks planar array electrophysiology technology (described below). A clonal line was identified that gave a reasonable level of functional Cav2.2α/β3 current expression. This cell line was transfected with a plasmid vector for expression of the human […] subunit (pCIP-α2δ1 which carries a puromycin resistance marker) and clonal cell lines isolated following selection in media containing 0.62 μg ml^−1 puromycin (Sigma, Cat #P-7255), in addition to 0.4 mg ml^−1 Geneticin G418 and 0.1 mg ml^−1 hygromycin. Several cell lines were identified that gave robust levels of Cav2.2α/β3/α2δ1-mediated current expression and one of these was selected for compound profiling. Expression of all three subunits within this cell line was continuously maintained by the inclusion of G418 (0.4 mg ml^−1), hygromycin (0.1 mg ml^−1) and puromycin (0.62 μg ml^−1). Cells were maintained at 37° C. in a humidified environment containing 5% CO2 in air. Cells were liberated from the T175 culture flasks for passage and harvesting using TrpLE (Invitrogen, Cat #12604-013).
Cells were grown to 30-60% confluence in T175 flasks and maintained at 30° C. for 24 hrs prior to recording. Cells were lifted by removing the growth media, washing with Ca^2+ free PBS (Invitrogen, Cat #14190-094) and incubating with 3 ml of warmed (37° C.) TrpLE (Invitrogen, Cat #12604-013) for 6 minutes. Lifted cells were suspended in 10 ml of extracellular buffer. Cell suspension was then placed into a 15 ml tube and centrifuged for 2 minutes at 700 rpm. After centrifugation, the supernatant was removed and the cell pellet was resuspended in 4.5 ml of extracellular solution.
Currents were recorded at room temperature (21-23° C.) using the IonWorks planar array electrophysiology technology (Molecular Devices Corp.). Stimulation protocols and data acquisition were carried out using a microcomputer (Dell Pentium 4). In order to determine planar electrode hole resistances (Rp), a 10 mV, 160 ms potential difference was applied across each hole. These measurements were performed before cell addition. After cell addition a seal test was performed prior to antibiotic (amphotericin) circulation to achieve intracellular access. Leak subtraction was conducted in all experiments by applying a 160 ms hyperpolarizing (10 mV) prepulse 200 ms before the test pulses to measure leak conductance. Test pulses stepping from the holding potential (VH) of −90 mV to +10 mV were applied for 20 ms and repeated 10 times at a frequency of 10 Hz. In all experiments, the test pulse protocol was performed in the absence (pre-read) and presence (post-read) of a compound. Pre- and post-reads were separated by a compound addition followed by a 3-3.5 min incubation.
The intracellular solution contained the following (in mM): K-gluconate 120, KCl 20 mM, MgCl2 5, EGTA 5, HEPES 10, adjusted to pH 7.3. […]

T1 sequence (Q00975 whole entry): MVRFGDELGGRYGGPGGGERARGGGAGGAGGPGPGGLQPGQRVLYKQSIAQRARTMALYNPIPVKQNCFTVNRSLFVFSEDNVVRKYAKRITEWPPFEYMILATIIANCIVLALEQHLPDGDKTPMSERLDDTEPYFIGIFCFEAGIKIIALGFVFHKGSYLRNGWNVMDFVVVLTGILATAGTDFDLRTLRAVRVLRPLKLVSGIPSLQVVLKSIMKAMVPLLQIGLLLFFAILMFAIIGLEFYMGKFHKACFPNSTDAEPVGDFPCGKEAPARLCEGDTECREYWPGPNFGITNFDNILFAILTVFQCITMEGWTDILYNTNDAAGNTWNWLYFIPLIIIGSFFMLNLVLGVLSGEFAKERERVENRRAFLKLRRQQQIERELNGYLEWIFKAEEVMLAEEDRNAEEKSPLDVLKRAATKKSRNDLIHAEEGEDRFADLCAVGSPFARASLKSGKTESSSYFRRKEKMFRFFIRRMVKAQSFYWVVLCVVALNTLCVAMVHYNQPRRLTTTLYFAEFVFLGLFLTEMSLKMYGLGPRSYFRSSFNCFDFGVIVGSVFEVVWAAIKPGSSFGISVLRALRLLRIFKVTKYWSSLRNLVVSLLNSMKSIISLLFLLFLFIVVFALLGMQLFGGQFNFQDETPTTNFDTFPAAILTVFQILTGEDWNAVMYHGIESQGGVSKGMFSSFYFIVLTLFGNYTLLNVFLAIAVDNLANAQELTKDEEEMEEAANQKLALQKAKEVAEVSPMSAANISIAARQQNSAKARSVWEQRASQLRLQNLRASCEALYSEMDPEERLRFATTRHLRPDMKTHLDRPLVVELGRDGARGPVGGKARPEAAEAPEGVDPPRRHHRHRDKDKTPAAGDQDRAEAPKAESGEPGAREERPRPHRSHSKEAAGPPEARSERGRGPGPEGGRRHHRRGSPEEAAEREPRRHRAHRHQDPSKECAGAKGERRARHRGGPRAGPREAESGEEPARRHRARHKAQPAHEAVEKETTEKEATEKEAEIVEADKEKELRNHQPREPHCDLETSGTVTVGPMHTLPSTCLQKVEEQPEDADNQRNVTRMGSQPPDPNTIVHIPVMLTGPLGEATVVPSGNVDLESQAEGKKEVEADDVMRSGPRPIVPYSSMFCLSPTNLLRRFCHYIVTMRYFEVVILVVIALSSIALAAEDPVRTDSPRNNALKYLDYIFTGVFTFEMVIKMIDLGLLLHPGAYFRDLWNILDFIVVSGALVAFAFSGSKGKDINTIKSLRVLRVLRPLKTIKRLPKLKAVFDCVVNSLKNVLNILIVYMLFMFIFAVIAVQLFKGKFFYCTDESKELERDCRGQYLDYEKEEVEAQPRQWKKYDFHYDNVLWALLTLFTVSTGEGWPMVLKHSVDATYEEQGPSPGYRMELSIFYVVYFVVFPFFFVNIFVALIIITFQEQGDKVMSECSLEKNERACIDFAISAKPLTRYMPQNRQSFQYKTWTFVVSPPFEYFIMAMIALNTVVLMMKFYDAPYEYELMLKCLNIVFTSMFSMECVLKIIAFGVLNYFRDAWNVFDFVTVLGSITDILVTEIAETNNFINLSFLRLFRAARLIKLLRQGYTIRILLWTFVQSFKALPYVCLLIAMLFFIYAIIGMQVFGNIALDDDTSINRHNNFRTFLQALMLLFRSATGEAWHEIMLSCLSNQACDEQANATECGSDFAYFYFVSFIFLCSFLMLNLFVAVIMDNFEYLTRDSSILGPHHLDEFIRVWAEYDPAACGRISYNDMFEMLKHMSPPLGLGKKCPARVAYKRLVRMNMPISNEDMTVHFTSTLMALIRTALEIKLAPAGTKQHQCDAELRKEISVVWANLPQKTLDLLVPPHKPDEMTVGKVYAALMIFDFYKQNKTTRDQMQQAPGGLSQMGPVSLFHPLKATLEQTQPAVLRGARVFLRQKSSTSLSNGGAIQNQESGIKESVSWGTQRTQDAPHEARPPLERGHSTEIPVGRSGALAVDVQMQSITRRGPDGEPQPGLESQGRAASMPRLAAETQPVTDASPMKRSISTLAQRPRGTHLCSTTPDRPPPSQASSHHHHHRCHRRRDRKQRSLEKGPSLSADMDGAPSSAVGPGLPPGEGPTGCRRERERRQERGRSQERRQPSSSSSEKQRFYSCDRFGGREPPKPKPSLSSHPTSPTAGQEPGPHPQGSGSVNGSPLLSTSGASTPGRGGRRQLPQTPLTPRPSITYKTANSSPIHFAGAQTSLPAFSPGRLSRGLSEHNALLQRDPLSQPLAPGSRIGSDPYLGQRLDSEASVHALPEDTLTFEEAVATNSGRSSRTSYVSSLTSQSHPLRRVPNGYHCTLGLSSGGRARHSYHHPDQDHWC

IC50 [µM]	Compound
≥ 31.6	Cc1ncccc1C(=O)N1CCN(S(=O)(=O)c2ccc(OC(F)(F)F)cc2)C[C@@H]1C [Example 64, (2S)-2-methyl-1-[(2-methyl-3-pyridinyl)carbonyl]-4-({4-[(trifluoromethyl)oxy]phenyl}sulfonyl)piperazine]
≥ 31.6	Cc1ccc(C(=O)N2CCN(S(=O)(=O)c3ccc(Cl)cc3)[C@@H](C)C2)cn1 [Example 8, (2S)-1-[(4-Chlorophenyl)sulfonyl]-2-methyl-4-[(6-methyl-3-pyridinyl)carbonyl]piperazine]
≥ 31.6	Cc1ccc(C(=O)N2CCN(S(=O)(=O)c3ccc(C(F)(F)F)cc3)C[C@H]2C)cn1 [Example 19, (2R)-2-methyl-1-[(6-methyl-3-pyridinyl)carbonyl]-4-{[4-(trifluoromethyl)phenyl]sulfonyl}piperazine formic acid salt (1:1)]
≥ 10	Cc1ccc(C(F)(F)F)cc1S(=O)(=O)N1CCN(C(=O)c2cccnc2C)[C@@H](C)C1 [Example 60, (2S)-2-methyl-1-[(2-methyl-3-pyridinyl)carbonyl]-4-{[2-methyl-5-(trifluoromethyl)phenyl]sulfon-yl}piperazine]
≥ 31.6	CNc1ccc(C(=O)N2CCN(S(=O)(=O)c3ccc(C#N)cc3C)C[C@@H]2C)c(C)n1 [Example 38, 3-Methyl-4-[((3S)-3-methyl-4-{[2-methyl-6-(methylamino)-3-pyridinyl]carbonyl}-1-piperazinyl)sulfonyl]benzonitrile]
≥ 31.6	C[C@H]1CN(C(=O)c2ccc(N3CCOCC3)nc2)CCN1S(=O)(=O)c1ccc(Cl)cc1 [Example 7, 4-[5-({(3S)-4-[(4-Chlorophenyl)sulfonyl]-3-methyl-1-piperazinyl}carbonyl)-2-pyridinyl]morpholine]
≥ 10	Cc1cc(C#N)ccc1S(=O)(=O)N1CCN(C(=O)c2ccc(Cl)nc2C)[C@@H](C)C1 [Example 25, 4-({(3S)-4-[(6-Chloro-2-methyl-3-pyridinyl)carbonyl]-3-methyl-1-piperazinyl}sulfonyl)-3-methylbenzonitrile]
≥ 31.6	Cc1ccc(C(=O)N2CCN(S(=O)(=O)c3ccc(C(F)(F)F)cc3)C[C@@H]2C)cn1 [Example 1, (2S)-2-Methyl-1-[(6-methyl-3-pyridinyl)carbonyl]-4-{[4-(trifluoromethyl)phenyl]sulfonyl}piperazine]
≥ 31.6	Cc1cc(C)c(C(=O)N2CCN(S(=O)(=O)c3ccc(C#N)cc3C)C[C@@H]2C)cn1 [Example 68, 4-({(3S)-4-[(4,6-dimethyl-3-pyridinyl)carbonyl]-3-methyl-1-piperazinyl}sulfonyl)-3-methylbenzonitrile]
≥ 31.6	Cc1ccc(C(=O)N2CCN(S(=O)(=O)c3ccc(C#N)cc3C)C[C@@H]2C)c(C)n1 [Example 67, 4-({(3S)-4-[(2,6-dimethyl-3-pyridinyl)carbonyl]-3-methyl-1-piperazinyl}sulfonyl)-3-methylbenzonitrile]
≥ 31.6	Cc1cc(C#N)ccc1S(=O)(=O)N1CCN(C(=O)c2ccc(N3CCC3)nc2C)[C@@H](C)C1 [Example 40, 4-[((38)-4-{[6-(1-Azetidinyl)-2-methyl-3-pyridinyl]carbonyl}-3-methyl-1-piperazinyl)sulfonyl]-3-methylbenzonitrile hydrochloride]
≥ 10	CCN(CC)c1ccc(C(=O)N2CCN(S(=O)(=O)c3ccc(C(F)(F)F)cc3)CC2)cn1 [Example 56, N,N-diethyl-5-[(4-{[4-(trifluoromethyl)phenyl]sulfonyl}-1-piperazinyl)carbonyl]-2-pyridinamine]
≥ 10	Cc1cc(N2CCOCC2)ncc1C(=O)N1CCN(S(=O)(=O)c2ccc(C(F)(F)F)cc2)C[C@@H]1C [Example 47, 4-{4-Methyl-5-[((2S)-2-methyl-4-{[4-(trifluoromethyl)phenyl]sulfonyl}-1-piperazinyl)carbonyl]-2-pyridinyl}morpholine hydrochloride]
≥ 31.6	Cc1ncccc1C(=O)N1CCN(S(=O)(=O)c2ccc(C(F)(F)F)cc2)CC1 [Example 5, 1-[(2-Methyl-3-pyridinyl)carbonyl]-4-{[4-(trifluoromethyl)phenyl]sulfonyl}piperazine]
≥ 10	Cc1cc(C#N)ccc1S(=O)(=O)N1CCN(C(=O)c2ccc(N3CCOCC3)nc2C)[C@@H](C)C1 [Example 35, 3-Methyl-4-[((3S)-3-methyl-4-{[2-methyl-6-(4-morpholinyl)-3-pyridinyl]carbonyl}-1-piperazinyl)sulfonyl]benzonitrile hydrochloride]
≥ 31.6	O=C(c1cccnc1)N1CCN(S(=O)(=O)c2ccc(C(F)(F)F)cc2)CC1 [Example 3, 1-(3-Pyridinylcarbonyl)-4-{[4-(trifluoromethyl)phenyl]sulfonyl}piperazine]
≥ 31.6	Cc1ccc(C(=O)N2CCN(S(=O)(=O)c3ccc(OC(F)(F)F)cc3)CC2)cn1 [Example 23, 1-[(6-Methyl-3-pyridinyl)carbonyl]-4-({4-[(trifluoromethyl)oxy]phenyl}sulfonyl)piperazine]
≥ 31.6	CN(C)c1ccc(C(=O)N2CCN(S(=O)(=O)c3ccc(C(F)(F)F)cc3)CC2)cn1 [Example 57, N,N-dimethyl-5-[(4-{[4-(trifluoromethyl)phenyl]sulfonyl}-1-piperazinyl)carbonyl]-2-pyridinamine]
≥ 31.6	Cc1ncccc1C(=O)N1CCN(S(=O)(=O)c2ccc(OC(F)(F)F)cc2)C[C@H]1C [Example 58, (2R)-2-methyl-1-[(2-methyl-3-pyridinyl)carbonyl]-4-({4-[(trifluoromethyl)oxy]phenyl}sulfonyl)piperazine]
≥ 31.6	Cc1ccc(C(=O)N2CCN(S(=O)(=O)c3ccc(C(F)(F)F)cc3)CC2)cn1 [Example 4, 1-[(6-Methyl-3-pyridinyl)carbonyl]-4-{[4-(trifluoromethyl)phenyl]sulfonyl}piperazine]
≥ 31.6	Cc1ccc(C(=O)N2CCN(S(=O)(=O)c3ccc(C(F)(F)F)cc3)[C@@H](C)C2)cn1 [Example 11, (2S)-2-Methyl-4-[(6-methyl-3-pyridinyl)carbonyl]-1-{[4-(trifluoromethyl)phenyl]sulfonyl}piperazine formic acid salt]
≥ 10	Cc1nc(Cl)ccc1C(=O)N1CCN(S(=O)(=O)c2ccc(C(F)(F)F)cc2)C[C@@H]1C [Example 24, (2S)-1-[(6-Chloro-2-methyl-3-pyridinyl)carbonyl]-2-methyl-4-{[4-(trifluoromethyl)phenyl]sulfonyl}piperazine]
≥ 31.6	Cc1ccc(C(=O)N2CCN(S(=O)(=O)c3ccc(C#N)cc3C)[C@@H](C)C2)cn1 [Example 52, 3-methyl-4-({(2S)-2-methyl-4-[(6-methyl-3-pyridinyl)carbonyl]-1-piperazinyl}sulfonyl)benzonitrile hydrochloride]
≥ 31.6	Cc1ccncc1C(=O)N1CCN(S(=O)(=O)c2ccc(C(F)(F)F)cc2)C[C@@H]1C [Example 18, (2S)-2-Methyl-1-[(4-methyl-3-pyridinyl)carbonyl]-4-{[4-(trifluoromethyl)phenyl]sulfonyl}piperazine]
≥ 31.6	Cc1ccc(C(=O)N2CCN(S(=O)(=O)c3cc(C(F)(F)F)ccc3C)CC2)cn1 [Example 61, 1-[(6-methyl-3-pyridinyl)carbonyl]-4-{[2-methyl-5-(trifluoromethyl)phenyl]sulfon-yl}piperazine]
